Source: patent US10501805B2, “Methods for determining responsiveness to MEK/ERK inhibitors” (CROWN BIOSCIENCE, INC. (TAICANG), priority 2014, dated 2019)

Columns and labels:
Test in all cases: CellTiter-Glo cell viability, IC50 determination
Type in all cases: cell-based
HT1376 = conditions: Homo sapiens, HT-1376, 72 h; HT1376 cell line; 3-day CTG assay; read-out: Absolute IC50
In short: (§1)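 Cells were seeded at 4×10^3 cells/well in medium with 10% FBS, left overnight at 37 °C and 5% CO2, then treated in triplicate on Day 0. On Day 3, viability was read by CellTiter-Glo luminescence. Absolute IC50 is where a sigmoidal nonlinear fit crosses 50% surviving rate.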

NCI-H2227 = conditions: 72 h; NCI-H2227 cell line; 3-day CTG assay; read-out: Absolute IC50
In short: as §1

NCI-H1651 = conditions: Homo sapiens, 72 h; NCI-H1651 cell line; 3-day CTG assay; read-out: Absolute IC50
In short: as §1

Hela = conditions: Homo sapiens, 72 h; Hela cell line; 3-day CTG assay; read-out: Absolute IC50
In short: as §1

A2058 = conditions: Homo sapiens, 72 h; A2058 cell line; 3-day CTG assay; read-out: Absolute IC50
In short: as §1

NCI-H1299 = conditions: Homo sapiens, 72 h; NCI-H1299 cell line; 3-day CTG assay; read-out: Absolute IC50
In short: as §1

BT474 = conditions: Homo sapiens, BT-474, 72 h; BT474 cell line; 3-day CTG assay; read-out: Absolute IC50
In short: as §1

O=C(Nc1ccc2[nH]nc(-c3ccncc3)c2c1)[C@@H]1CCN(CC(=O)N2CCN(c3ccc(-c4ncccn4)cc3)CC2)C1 [SCH772984, (R)-1-(2-oxo-2-(4-(4-(pyrimidin-2-yl)phenyl)piperazin-1-yl)ethyl)-N-(3-(pyridin-4-yl)-1H-indazol-5-yl)pyrrolidine-3-carboxamide]
IC50 (HT1376): 4.27 µM | IC50 (NCI-H2227): 28.7 µM | IC50 (NCI-H1651): 48.8 µM | IC50 (Hela): 5.38 µM

CC(=O)Nc1cccc(-n2c(=O)n(C3CC3)c(=O)c3c(Nc4ccc(I)cc4F)n(C)c(=O)c(C)c32)c1 [Trametinib, N-(3-{3-Cyclopropyl-5-[(2-fluoro-4-iodophenyl)amino]-6,8-dimethyl-2,4,7-trioxo-3,4,6,7-tetrahydropyrido[4,3-d]pyrimidin-1(2H)-yl}phenyl)acetamide]
IC50 (A2058): 0.12 µM | IC50 (NCI-H1299): 0.91 µM | IC50 (BT474): 39 µM
